In patent US20260022142A1, “MACROCYCLIC IMMUNOMODULATORS” (Bristol-Myers Squibb Company, priority 2022, published 2026):
Bridge positions count the residues as written; N and C are the ends. Square brackets hold non-standard residues; d marks the D form. Peptide text beside a SMILES is read from it. * marks the point of attachment. Phe(4-COOH) = N[C@@H](Cc1ccc(C(=O)O)cc1)C(=O)O; Bip = N[C@@H](Cc1ccc(-c2ccccc2)cc1)C(=O)O; Phe(3-Me) = Cc1cccc(C[C@H](N)C(=O)O)c1; 4Pal = N[C@@H](Cc1ccncc1)C(=O)O; Cha = N[C@@H](CC1CCCCC1)C(=O)O; Cit = NC(=O)NCCC[C@H](N)C(=O)O; Carboxymethyl = O=C(O)C*; Orn = NCCC[C@H](N)C(=O)O; Aun = NCCCCCCCCCCC(=O)O; Dab = NCC[C@H](N)C(=O)O; Dap = NC[C@H](N)C(=O)O; AEEA = NCCOCCOCC(=O)O

Target: T1, PD-1/PD-L1 interaction (PE-labeled human PD-L1-Ig binding to Jurkat cell line over-expressing human PD-1) (Homo sapiens, UniProt Q15116)
T1 construct: expressed in transfected cells; host or cells: Jurkat
Assay: Jurkat-PD-1 Cell Binding High-Content Screening Assay (CBA)
Type: cell-based
Details: Jurkat cell line over-expressing human PD-1; PE-labeled PD-L1-Ig 20 nM final; read-out: Jurkat hPD1-PDL1 IC50
Outline: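 Human PD-L1-Ig carrying a covalent PE label on its Ig tag serves as the probe, applied at 20 nM final to compound-treated (2 h, 37° C) Jurkat-hPD-1 cells in medium with 10% fetal calf serum. After one hour, fixation and nuclear staining precede high-content image analysis.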

T1 sequence (Q15116 25-288): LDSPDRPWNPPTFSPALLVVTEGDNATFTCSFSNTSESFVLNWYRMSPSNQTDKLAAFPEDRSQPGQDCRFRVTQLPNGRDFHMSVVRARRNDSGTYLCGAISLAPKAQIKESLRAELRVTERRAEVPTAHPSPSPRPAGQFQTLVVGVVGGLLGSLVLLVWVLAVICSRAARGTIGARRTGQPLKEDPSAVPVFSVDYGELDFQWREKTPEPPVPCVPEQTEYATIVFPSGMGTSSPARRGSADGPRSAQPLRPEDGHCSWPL

Row | SMILES | IC50 [nM]
1 | Cc1cccc(C[C@@H]2NC(=O)[C@H](CC(=O)O)NC(=O)[C@H](Cc3ccc(OCC(=O)O)cc3)NC(=O)[C@H](CN)NC(=O)CSC[C@@H](C(=O)N[C@@H](CCC(=O)O)C(=O)NCCOCCOCC(=O)NCCCCCCCCCCC(=O)O)NC(=O)[C@H]([C@@H](C)O)NC(=O)[C@H](C(C)C)NC(=O)[C@H](CC3CCCCC3)NC(=O)[C@H](CCN)NC(=O)[C@@H](CC(C)C)NC(=O)[C@H](CCCN)NC(=O)[C@H](CCCNC(N)=O)NC(=O)[C@H](Cc3ccc(-c4ccccc4)cc3)NC(=O)[C@H](C(C)C)NC2=O)c1 [Compound 1037] ({CH2CO}-[Dap]Y(Carboxymethyl)D[Phe(3-Me)]V[Bip][Cit][Orn][dL][Dab][Cha]VTCE[AEEA][Aun]-OH; thioether N-14) | 7.6
2 | Cc1cccc(C[C@@H]2NC(=O)[C@H](CC(=O)O)NC(=O)[C@H](Cc3ccc(OCC(=O)O)cc3)NC(=O)[C@H](CN)NC(=O)CSC[C@@H](C(=O)NCCOCCOCC(=O)NCCCCCCCCCCC(=O)O)NC(=O)[C@H]([C@@H](C)O)NC(=O)[C@H](C(C)C)NC(=O)[C@H](CC3CCCCC3)NC(=O)[C@H](CCN)NC(=O)[C@@H](CC(C)C)NC(=O)[C@H](CCCN)NC(=O)[C@H](CCCNC(N)=O)NC(=O)[C@H](Cc3ccc(-c4ccccc4)cc3)NC(=O)[C@H](C(C)C)NC2=O)c1 [Compound 1038] ({CH2CO}-[Dap]Y(Carboxymethyl)D[Phe(3-Me)]V[Bip][Cit][Orn][dL][Dab][Cha]VTC[AEEA][Aun]-OH; thioether N-14) | 20.8
3 | CC[C@H](C)[C@@H]1NC(=O)[C@H](Cc2ccc(-c3ccccc3)cc2)NC(=O)[C@H](C(C)C)NC(=O)[C@H](Cc2cccc(C)c2)NC(=O)[C@H](CC(=O)O)NC(=O)[C@H](Cc2ccc(C(=O)O)cc2)NC(=O)[C@H](Cc2ccncc2)NC(=O)CSC[C@@H](C(=O)N[C@@H](C)C(=O)N[C@@H](CCC(=O)O)C(=O)NCCCCCCCCCCC(=O)O)NC(=O)[C@H]([C@@H](C)O)NC(=O)[C@H](C(C)C)NC(=O)[C@H](CC2CCCCC2)NC(=O)[C@H](CCN)NC(=O)[C@@H](CC(C)C)NC(=O)[C@H](CCCN)NC1=O [Compound 1039] | 11.9
4 | CC[C@H](C)[C@@H]1NC(=O)[C@H](Cc2ccc(-c3ccccc3)cc2)NC(=O)[C@H](C(C)C)NC(=O)[C@H](Cc2cccc(C)c2)NC(=O)[C@H](CC(=O)O)NC(=O)[C@H](Cc2ccc(C(=O)O)cc2)NC(=O)[C@H](Cc2ccncc2)NC(=O)CSC[C@@H](C(=O)N[C@@H](CCC(=O)O)C(=O)NCCCCCCCCCCC(=O)O)NC(=O)[C@H]([C@@H](C)O)NC(=O)[C@H](C(C)C)NC(=O)[C@H](CC2CCCCC2)NC(=O)[C@H](CCN)NC(=O)[C@@H](CC(C)C)NC(=O)[C@H](CCCN)NC1=O [Compound 1040] ({CH2CO}-[4Pal][Phe(4-COOH)]D[Phe(3-Me)]V[Bip]I[Orn][dL][Dab][Cha]VTCE[Aun]-OH; thioether N-14) | 52.9
5 | CC[C@H](C)[C@@H]1NC(=O)[C@H](Cc2ccc(-c3ccccc3)cc2)NC(=O)[C@H](C(C)C)NC(=O)[C@H](Cc2cccc(C)c2)NC(=O)[C@H](CC(=O)O)NC(=O)[C@H](Cc2ccc(C(=O)O)cc2)NC(=O)[C@H](Cc2ccncc2)NC(=O)CSC[C@@H](C(=O)N[C@@H](C)C(=O)N[C@@H](CCC(=O)O)C(=O)NCC(=O)NCCCCCCCCCCC(=O)O)NC(=O)[C@H]([C@@H](C)O)NC(=O)[C@H](C(C)C)NC(=O)[C@H](CC2CCCCC2)NC(=O)[C@H](CCN)NC(=O)[C@@H](CC(C)C)NC(=O)[C@H](CCCN)NC1=O [Compound 1041] | 15.1
6 | CC[C@H](C)[C@@H]1NC(=O)[C@H](Cc2ccc(-c3ccccc3)cc2)NC(=O)[C@H](C(C)C)NC(=O)[C@H](Cc2cccc(C)c2)NC(=O)[C@H](CC(=O)O)NC(=O)[C@H](Cc2ccc(C(=O)O)cc2)NC(=O)[C@H](Cc2ccncc2)NC(=O)CSC[C@@H](C(=O)N[C@@H](C)C(=O)N[C@@H](CC(=O)O)C(=O)NCC(=O)NCCCCCCCCCCC(=O)O)NC(=O)[C@H]([C@@H](C)O)NC(=O)[C@H](C(C)C)NC(=O)[C@H](CC2CCCCC2)NC(=O)[C@H](CCN)NC(=O)[C@@H](CC(C)C)NC(=O)[C@H](CCCN)NC1=O [Compound 1042] | 15.3
7 | CC[C@H](C)[C@@H]1NC(=O)[C@H](Cc2ccc(-c3ccccc3)cc2)NC(=O)[C@H](C(C)C)NC(=O)[C@H](Cc2cccc(C)c2)NC(=O)[C@H](CC(=O)O)NC(=O)[C@H](Cc2ccc(C(=O)O)cc2)NC(=O)[C@H](Cc2ccncc2)NC(=O)CSC[C@@H](C(=O)N[C@@H](CC(=O)O)C(=O)NCCCCCCCCCCC(=O)O)NC(=O)[C@H]([C@@H](C)O)NC(=O)[C@H](C(C)C)NC(=O)[C@H](CC2CCCCC2)NC(=O)[C@H](CCN)NC(=O)[C@@H](CC(C)C)NC(=O)[C@H](CCCN)NC1=O [Compound 1043] ({CH2CO}-[4Pal][Phe(4-COOH)]D[Phe(3-Me)]V[Bip]I[Orn][dL][Dab][Cha]VTCD[Aun]-OH; thioether N-14) | 15.6
8 | Cc1cccc(C[C@@H]2NC(=O)[C@H](CC(=O)O)NC(=O)[C@H](Cc3ccc(OCC(=O)O)cc3)NC(=O)[C@H](CN)NC(=O)CSC[C@@H](C(=O)N[C@@H](C)C(=O)N[C@@H](CCC(=O)O)C(=O)NCCCCCCCCCCC(=O)O)NC(=O)[C@H]([C@@H](C)O)NC(=O)[C@H](C(C)C)NC(=O)[C@H](CC3CCCCC3)NC(=O)[C@H](CCN)NC(=O)[C@@H](CC(C)C)NC(=O)[C@H](CCCN)NC(=O)[C@H](CCC(=O)O)NC(=O)[C@H](Cc3ccc(-c4ccccc4)cc3)NC(=O)[C@H](C(C)C)NC2=O)c1 [Compound 1044] ({CH2CO}-[Dap]Y(Carboxymethyl)D[Phe(3-Me)]V[Bip]E[Orn][dL][Dab][Cha]VTCAE[Aun]-OH; thioether N-14) | 6.1
9 | Cc1cccc(C[C@@H]2NC(=O)[C@H](CC(=O)O)NC(=O)[C@H](Cc3ccc(OCC(=O)O)cc3)NC(=O)[C@H](CN)NC(=O)CSC[C@@H](C(=O)N[C@@H](CCC(=O)O)C(=O)NCCCCCCCCCCC(=O)O)NC(=O)[C@H]([C@@H](C)O)NC(=O)[C@H](C(C)C)NC(=O)[C@H](CC3CCCCC3)NC(=O)[C@H](CCN)NC(=O)[C@@H](CC(C)C)NC(=O)[C@H](CCCN)NC(=O)[C@H](CCC(=O)O)NC(=O)[C@H](Cc3ccc(-c4ccccc4)cc3)NC(=O)[C@H](C(C)C)NC2=O)c1 [Compound 1045] ({CH2CO}-[Dap]Y(Carboxymethyl)D[Phe(3-Me)]V[Bip]E[Orn][dL][Dab][Cha]VTCE[Aun]-OH; thioether N-14) | 11
10 | Cc1cccc(C[C@@H]2NC(=O)[C@H](CC(=O)O)NC(=O)[C@H](Cc3ccc(OCC(=O)O)cc3)NC(=O)[C@H](CN)NC(=O)CSC[C@@H](C(=O)N[C@@H](C)C(=O)N[C@@H](CCC(=O)O)C(=O)NCC(=O)NCCCCCCCCCCC(=O)O)NC(=O)[C@H]([C@@H](C)O)NC(=O)[C@H](C(C)C)NC(=O)[C@H](CC3CCCCC3)NC(=O)[C@H](CCN)NC(=O)[C@@H](CC(C)C)NC(=O)[C@H](CCCN)NC(=O)[C@H](CCC(=O)O)NC(=O)[C@H](Cc3ccc(-c4ccccc4)cc3)NC(=O)[C@H](C(C)C)NC2=O)c1 [Compound 1046] ({CH2CO}-[Dap]Y(Carboxymethyl)D[Phe(3-Me)]V[Bip]E[Orn][dL][Dab][Cha]VTCAEG[Aun]-OH; thioether N-14) | 16.2
